Data on 3 molecules can be found in patent US11865095B2, “Combination drug substance of polyamine transport inhibitor and DFMO” (Aminex Therapeutics, Inc., priority 2020, dated 2024).

Read-outs that look alike come from different tables or passages of the source. Some results are limits rather than exact numbers.

A short description of data set [1]: bioavailability / Biopharmaceutics Classification System class.
In another data set the test system is cancer cells. Kind of data set: in vitro EC50 against cancer cells. Type of data set: cell-based.
A further data set can be described thus: in vivo. The note with it: BALB/c, mouse, tumor, subcutaneous, 2.5 mg/kg.
A further data set is described as follows: clinical. The note with it: human, in vivo, po.
For data set [2] the following is noted: mouse, in vivo.
A short description of data set [3]: First-in-human clinical trial NCT03536728 Part 1: plasma pharmacokinetics and tolerability of oral AMXT 1501 dicaprate and DFMO.
The nature of another data set: water solubility. In kind it is physicochemical.

As usually defined, the Cmax is the highest concentration seen after dosing.

On to `CCCCCCCCCC(=O)O.CCCCCCCCCC(=O)O.CCCCCCCCCCCCCCCC(=O)NCCCC[C@@H](N)C(=O)NCCCNCCCCNCCCN` [AMXT 1501 dicaprate], for which, in data set [1], the bioavailability entry is reported as “low”.
With `CCCCCCCCCCCCCCCC(=O)NCCCC[C@@H](N)C(=O)NCCCNCCCCNCCCN` [AMXT 1501, D-lys(palmitoyl)-spermine], the EC50 amounted to 0.028 µg/mL in the data set on cancer cells (equivalent of 50 nM, read-out: plasma concentration equivalent to in vitro EC50) and 50 nM in the data set with cancer cells (read-out: in vitro EC50 against cancer cells). The molecule also yielded a Kp in the data set “in vivo” of 14. In addition, the Cmax in “clinical” was 794 ng/mL; in data set [3] (human, in vivo), below 1000 ng/mL. Also, the “AMXT 1501 tumor AUC” value in data set [2] is 152,000 hr*ng/mL. Further, the “duration of plasma levels” value in data set [3] (Cohort 5, over the 24-hour dosing time increment) is “sustained over the 24-hour dosing time increment”. For the same molecule, the “adverse effects observed in patients” value in data set [3] (Part 1 patients, mainly gastrointestinal (nausea and diarrhea)) is “modest Grades 1 and 2 adverse effects”. In data set [3] (single or repeat PO dosing, dose levels of 160 mg AMXT 1501 and higher), the “mean AMXT 1501 exposure versus dose” value was “increased in a dose-dependent manner”.
Take `NCCCC(N)(C(=O)O)C(F)F` (centres unmarked) [DFMO, difluoromethylornithine]: the water solubility entry in “water solubility” is “high”.
